What was measured:
giant foxtail = assay: Test B pre/postemergence giant foxtail; assay type: in vivo, Setaria faberii
In short: (§1)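 Response is a visual 0-to-10 score relative to untreated plants, where 0 means no effect and 10 means complete control, taken twelve to sixteen days after application. Treatments went onto soil at planting and onto foliage of 1- to 4-leaf plants, using a surfactant-containing non-phytotoxic solvent.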

morningglory = assay: Test B pre/postemergence morningglory; assay type: in vivo, Ipomoea hederacea
In short: as §1

pigweed = assay: Test B pre/postemergence pigweed; assay type: in vivo, Amaranthus retroflexus
In short: as §1

winter wheat [1] = assay: Test E winter wheat; assay type: in vivo, Triticum aestivum; conditions: Postemergence; for Plant response rating, Wheat (winter): 0 to 100 scale; for Wheat (winter) plant response rating: 0 to 100 scale where 0 is no effect and 100 is complete control
In short: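 Greenhouse test: for postemergence, foliar application at 1- to 4-leaf stage; compound in non-phytotoxic solvent with surfactant. Rating is visual, relative to untreated controls, about 21 to 28 days after treatment.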

blackgrass = assay: Test E blackgrass; assay type: in vivo, Alopecurus myosuroides; conditions: Preemergence
green foxtail = assay: Test E green foxtail; assay type: in vivo, Setaria viridis; conditions: Preemergence
Italian ryegrass = assay: Test E Italian ryegrass; assay type: in vivo, Lolium multiflorum; conditions: Preemergence
winter wheat [2] = assay: Test E winter wheat; assay type: in vivo, Triticum aestivum; conditions: Preemergence
wild oat = assay: Test E wild oat; assay type: in vivo, Avena fatua; conditions: Preemergence
winter barley = assay: Test E winter barley; assay type: in vivo, Hordeum vulgare; conditions: Preemergence
[3] = Postemergence, Rate 125 g/ha, scale 0 to 10, 0 is no effect, 10 is complete control
[4] = Postemergence, Rate 250 g/ha, scale 0 to 10, 0 is no effect, 10 is complete control
[5] = Preemergence, Rate 62 g/ha, scale 0 to 10 (0 no effect, 10 complete control)
[6] = Preemergence, Rate 250 g/ha, scale of 0 to 10 where 0 is no effect and 10 is complete control
[7] = Preemergence, Rate 500 g/ha, scale of 0 to 10 where 0 is no effect and 10 is complete control
[8] = Rate 62 g/ha, Postemergence, scale of 0 to 10 where 0 is no effect and 10 is complete control
[9] = Rate 500 g/ha, Postemergence, scale 0 to 10, 0 no effect, 10 complete control
[10] = Rate 125 g/ha, 0 to 100 scale (0 no effect, 100 complete control)
[11] = Postemergence, Rate 125 g/ha, scale of 0 to 10 where 0 is no effect and 10 is complete control
[12] = Preemergence, Rate 62 g/ha, scale of 0 to 10 where 0 is no effect and 10 is complete control
[13] = Preemergence, Rate 125 g/ha, 0 is no effect, 10 is complete control
[14] = Preemergence, Rate 250 g/ha, scale 0 to 10, 0 is no effect, 10 is complete control
[15] = Preemergence, Rate 500 g/ha, scale 0 to 10 (0 no effect, 10 complete control)
[16] = Rate 250 g/ha, Postemergence, scale 0 to 10, 0 is no effect, 10 is complete control
[17] = Rate 500 g/ha, Postemergence, scale 0 to 10
[18] = Rate 1000 g/ha, 0 is no effect and 100 is complete control
[19] = Rate 500 g/ha, 0 to 100 scale where 0 is no effect and 100 is complete control
[20] = Rate 1000 g/ha, 0 to 100 scale where 0 is no effect and 100 is complete control

CC(C)N(C(=O)n1oc(=O)n(C(C)CCl)c1=O)c1ccc(F)cc1 (centres unmarked) [Compound 367]
Plant response rating, Giant foxtail (giant foxtail; [3]): 3
Plant response rating, Giant foxtail (giant foxtail; [4]): 8
Plant response rating, Giant foxtail (giant foxtail; [5]): 10
Giant foxtail plant response rating (0 to 10 scale) (giant foxtail; Preemergence, Rate 125 g/ha): 10
Giant foxtail plant response rating (giant foxtail; [6]): 10
Giant foxtail plant response rating (giant foxtail; [7]): 10
Giant foxtail plant response rating (giant foxtail; [8]): 0
Plant response rating, Giant foxtail (giant foxtail; [9]): 8
Plant response rating, Morningglory (morningglory; [3]): 5
Plant response rating, Morningglory (morningglory; [4]): 6
Plant response rating, Morningglory (morningglory; [5]): 0
Morningglory plant response rating (0 to 10 scale) (morningglory; Preemergence, Rate 125 g/ha): 0
Morningglory plant response rating (morningglory; [6]): 0
Morningglory plant response rating (morningglory; [7]): 2
Morningglory plant response rating (morningglory; [8]): 5
Plant response rating, Morningglory (morningglory; [9]): 7
Plant response rating, Redroot pigweed (pigweed; [3]): 0
Plant response rating, Redroot pigweed (pigweed; [4]): 0
Plant response rating, Redroot pigweed (pigweed; [5]): 10
Redroot pigweed plant response rating (0 to 10 scale) (pigweed; Preemergence, Rate 125 g/ha): 10
Redroot pigweed plant response rating (pigweed; [6]): 10
Redroot pigweed plant response rating (pigweed; [7]): 10
Redroot pigweed plant response rating (pigweed; [8]): 0
Plant response rating, Redroot pigweed (pigweed; [9]): 7
Plant response rating, Wheat (winter) (winter wheat [1]; Rate 125 g/ha, 0 is no effect, 100 is complete control): 50
Plant response rating, Wheat (winter) (winter wheat [1]; Rate 250 g/ha, 0 is no effect, 100 is complete control): 40
Plant response rating, Blackgrass (blackgrass; [10]): 60
Plant response rating, Blackgrass (blackgrass; Rate 250 g/ha, 0 to 100 scale): 30
Plant response rating, Green foxtail (green foxtail; [10]): 70
Plant response rating, Green foxtail (green foxtail; Rate 250 g/ha, 0 to 100 scale): 50
Plant response rating, I. Ryegrass (Italian ryegrass; [10]): 60
Plant response rating, I. Ryegrass (Italian ryegrass; Rate 250 g/ha, 0 to 100 scale): 60
Plant response rating, Wheat (winter) (winter wheat [2]; [10]): 60
Plant response rating, Wheat (winter) (winter wheat [2]; Rate 250 g/ha, 0 to 100 scale): 40
Plant response rating, Wild oat (wild oat; [10]): 55
Plant response rating, Wild oat (wild oat; Rate 250 g/ha, 0 to 100 scale): 50
Plant response rating, Barley (winter) (winter barley; [10]): 20
Plant response rating, Barley (winter) (winter barley; Rate 250 g/ha, 0 to 100 scale, 0 no effect, 100 complete control): 30

CC(C)N(C(=O)n1oc(=O)n(CC(F)(F)F)c1=O)c1ccc(F)cc1 [Compound 163]
Giant foxtail plant response rating (giant foxtail; [11]): 7
Giant foxtail plant response rating (giant foxtail; [12]): 8
Giant foxtail plant response rating (0 to 10 scale) (giant foxtail; [13]): 8
Giant foxtail plant response rating (giant foxtail; [14]): 8
Giant foxtail plant response rating (giant foxtail; [15]): 10
Giant foxtail plant response rating (giant foxtail; [8]): 6
Plant response rating, Giant foxtail (giant foxtail; [16]): 8
Giant foxtail plant response rating (giant foxtail; [17]): 8
Morningglory plant response rating (morningglory; [11]): 2
Morningglory plant response rating (morningglory; [12]): 0
Morningglory plant response rating (0 to 10 scale) (morningglory; [13]): 0
Morningglory plant response rating (morningglory; [14]): 0
Morningglory plant response rating (morningglory; [15]): 0
Morningglory plant response rating (morningglory; [8]): 2
Plant response rating, Morningglory (morningglory; [16]): 5
Morningglory plant response rating (morningglory; [17]): 8
Redroot pigweed plant response rating (pigweed; [11]): 2
Redroot pigweed plant response rating (pigweed; [14]): 6
Redroot pigweed plant response rating (pigweed; [15]): 9
Redroot pigweed plant response rating (pigweed; [8]): 0
Plant response rating, Redroot pigweed (pigweed; [16]): 3
Redroot pigweed plant response rating (pigweed; [17]): 3
Plant response rating, Wheat (winter) (winter wheat [1]; [18]): 70
Plant response rating, Wheat (winter) (winter wheat [1]; Rate 500 g/ha, 0 no effect, 100 complete control): 50
Wheat (winter) plant response rating (winter wheat [1]; Rate 250 g/ha): 40
Blackgrass plant response rating (0 to 100 scale) (blackgrass; Rate 250 g/ha): 30
Plant response rating, Blackgrass (blackgrass; [19]): 40
Plant response rating, Blackgrass (blackgrass; [20]): 50
Green foxtail plant response rating (0 to 100 scale) (green foxtail; Rate 250 g/ha): 100
Plant response rating, Green foxtail (green foxtail; [19]): 100
Plant response rating, Green foxtail (green foxtail; [20]): 100
I. Ryegrass plant response rating (0 to 100 scale) (Italian ryegrass; Rate 250 g/ha): 30
Plant response rating, I. Ryegrass (Italian ryegrass; [19]): 50
Plant response rating, I. Ryegrass (Italian ryegrass; [20]): 60
Wheat (winter) plant response rating (0 to 100 scale) (winter wheat [2]; Rate 250 g/ha): 30
Plant response rating, Wheat (winter) (winter wheat [2]; [20]): 55
Wild oat plant response rating (0 to 100 scale) (wild oat; Rate 250 g/ha): 50
Plant response rating, Wild oat (wild oat; [19]): 60
Plant response rating, Wild oat (wild oat; [20]): 70
Barley (winter) plant response rating (0 to 100 scale) (winter barley; Rate 250 g/ha): 30
Plant response rating, Barley (winter) (winter barley; [19]): 40
Plant response rating, Barley (winter) (winter barley; [20]): 50

CC(C)Cn1c(=O)on(C(=O)N(c2ccc(F)cc2)C(C)C)c1=O [Compound 169]
Giant foxtail plant response rating (giant foxtail; [11]): 2
Giant foxtail plant response rating (giant foxtail; [12]): 10
Giant foxtail plant response rating (0 to 10 scale) (giant foxtail; [13]): 10
Giant foxtail plant response rating (giant foxtail; [14]): 10
Giant foxtail plant response rating (giant foxtail; [15]): 10
Giant foxtail plant response rating (giant foxtail; [8]): 0
Plant response rating, Giant foxtail (giant foxtail; [16]): 6
Giant foxtail plant response rating (giant foxtail; [17]): 9
Morningglory plant response rating (morningglory; [11]): 1
Morningglory plant response rating (morningglory; [12]): 0
Morningglory plant response rating (0 to 10 scale) (morningglory; [13]): 0
Morningglory plant response rating (morningglory; [14]): 0
Morningglory plant response rating (morningglory; [15]): 0
Morningglory plant response rating (morningglory; [8]): 1
Plant response rating, Morningglory (morningglory; [16]): 5
Morningglory plant response rating (morningglory; [17]): 7
Redroot pigweed plant response rating (pigweed; [11]): 0
Redroot pigweed plant response rating (pigweed; [12]): 6
Redroot pigweed plant response rating (0 to 10 scale) (pigweed; [13]): 6
Redroot pigweed plant response rating (pigweed; [14]): 8
Redroot pigweed plant response rating (pigweed; [15]): 8
Redroot pigweed plant response rating (pigweed; [8]): 0
Plant response rating, Redroot pigweed (pigweed; [16]): 0
Redroot pigweed plant response rating (pigweed; [17]): 3
Plant response rating, Wheat (winter) (winter wheat [1]; [18]): 65
Wheat (winter) plant response rating (winter wheat [1]; Rate 250 g/ha): 40
Plant response rating, Wheat (winter) (winter wheat [1]; Rate 500 g/ha, 0 is no effect, 100 is complete control): 50
Blackgrass plant response rating (0 to 100 scale) (blackgrass; Rate 250 g/ha): 30
Plant response rating, Blackgrass (blackgrass; [19]): 60
Plant response rating, Blackgrass (blackgrass; [20]): 55
Green foxtail plant response rating (0 to 100 scale) (green foxtail; Rate 250 g/ha): 60
Plant response rating, Green foxtail (green foxtail; [19]): 70
Plant response rating, Green foxtail (green foxtail; [20]): 95
I. Ryegrass plant response rating (0 to 100 scale) (Italian ryegrass; Rate 250 g/ha): 75
Plant response rating, I. Ryegrass (Italian ryegrass; [19]): 80
Plant response rating, I. Ryegrass (Italian ryegrass; [20]): 90
Wheat (winter) plant response rating (0 to 100 scale) (winter wheat [2]; Rate 250 g/ha): 10
Plant response rating, Wheat (winter) (winter wheat [2]; [19]): 40
Plant response rating, Wheat (winter) (winter wheat [2]; [20]): 65
Wild oat plant response rating (0 to 100 scale) (wild oat; Rate 250 g/ha): 50
Plant response rating, Wild oat (wild oat; [19]): 30
Plant response rating, Wild oat (wild oat; [20]): 40
Barley (winter) plant response rating (0 to 100 scale) (winter barley; Rate 250 g/ha): 30
Plant response rating, Barley (winter) (winter barley; [19]): 30
Plant response rating, Barley (winter) (winter barley; [20]): 50

From patent US6737383B1, “Herbicidal oxadiazolidines” (priority 1999, dated 2004)
